Experiment [1] concerns LAPC4 prostate cancer cells, which express the AKT1 E17K allele. Nature of the experiment: Antiproliferative effects in LAPC4 cells (CellTiter Glo, 72 h). The experiment is classed as cell-based. As to conditions: Homo sapiens, LAPC4, 72 h, read-out: LAPC4 proliferation IC50. In short, it runs like this:
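Cells grown in IMDM supplemented with 12% FBS plus 1% P/S were treated for 72 h with DMSO-dissolved compounds. ATP-based luminescence was fitted to a log(inhibitor) versus response Hill model, giving IC50.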
A general note: ATP-based viability assays read luminescence as a measure of living cells.

For a further experiment, the target named is T1, AKT1 E17K (Homo sapiens, UniProt P31749, E17K).
T1 construct: expressed in transfected cells; host or cells: HEK293
Nature of the experiment: Live cell AKT1 E17K target engagement by NanoBRET competitive probe displacement in HEK293 cells. The experiment is classed as binding. As to conditions: 2 h at 37° C. In short, it runs like this: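 Competitive probe displacement is quantified as loss of BRET (E600/E460) in transfected HEK293 cells expressing the kinase–NanoLuc fusion. Cells are incubated 2 h at 37° C with compound dilutions and tracer at approximately EC50.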
On the technique in general: In BRET a luciferase serves as donor, and the signal depends on an acceptor being close.

For another experiment, the target named is T2, AKT1 WT (Homo sapiens, UniProt P31749).
T2 construct: expressed in transfected cells; host or cells: HEK293
Nature of the experiment: Live cell AKT1 WT target engagement by NanoBRET competitive probe displacement in HEK293 cells. Format: binding. Particulars: 2 h at 37° C., read-out: AKT1 WT IC50.

The next experiment deals with T3, AKT2 (Homo sapiens, UniProt P31751).
T3 construct: expressed in transfected cells; host or cells: HEK293
Description: Live cell AKT2 target engagement by NanoBRET competitive probe displacement in HEK293 cells. As to conditions: 2 h at 37° C., read-out: AKT2 IC50. The experiment is classed as binding.

Setting [2] is: NanoBRET live cell target engagement, HEK293 cells.
[3] abbreviates: NanoBRET competitive probe displacement, live HEK293 cells.

Where two headings read alike, the source gives them in different places. Some results are limits rather than exact numbers.

T2 sequence (P31749 whole entry): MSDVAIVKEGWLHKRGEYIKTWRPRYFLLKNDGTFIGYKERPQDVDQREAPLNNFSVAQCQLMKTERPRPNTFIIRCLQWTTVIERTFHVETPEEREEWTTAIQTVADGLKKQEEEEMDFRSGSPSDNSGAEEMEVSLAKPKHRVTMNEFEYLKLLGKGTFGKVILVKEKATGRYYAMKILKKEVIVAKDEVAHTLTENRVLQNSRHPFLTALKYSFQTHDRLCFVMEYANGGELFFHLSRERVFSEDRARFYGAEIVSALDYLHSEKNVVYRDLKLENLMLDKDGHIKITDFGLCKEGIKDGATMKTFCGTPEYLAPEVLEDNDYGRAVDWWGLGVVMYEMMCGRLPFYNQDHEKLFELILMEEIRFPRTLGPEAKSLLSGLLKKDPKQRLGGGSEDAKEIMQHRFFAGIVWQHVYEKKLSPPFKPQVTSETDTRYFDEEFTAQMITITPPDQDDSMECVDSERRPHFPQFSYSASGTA
T3 sequence (P31751 whole entry): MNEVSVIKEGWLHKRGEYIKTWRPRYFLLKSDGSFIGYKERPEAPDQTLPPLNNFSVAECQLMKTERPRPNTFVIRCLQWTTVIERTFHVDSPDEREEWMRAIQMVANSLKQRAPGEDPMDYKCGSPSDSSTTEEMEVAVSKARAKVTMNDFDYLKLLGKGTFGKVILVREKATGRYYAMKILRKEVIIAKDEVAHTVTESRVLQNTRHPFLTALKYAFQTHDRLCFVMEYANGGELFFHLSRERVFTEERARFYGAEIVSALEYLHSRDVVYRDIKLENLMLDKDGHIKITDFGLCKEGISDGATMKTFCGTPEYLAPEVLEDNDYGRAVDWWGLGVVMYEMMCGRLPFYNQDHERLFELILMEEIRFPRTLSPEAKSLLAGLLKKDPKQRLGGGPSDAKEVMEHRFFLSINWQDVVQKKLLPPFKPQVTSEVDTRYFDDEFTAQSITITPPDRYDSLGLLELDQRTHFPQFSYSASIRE
T1 sequence (P31749 whole entry E17K): as the sequence (P31749 whole entry) above, with E17K counted along it

As to `Nc1ncccc1-c1nc2ccc(-n3cccn3)nc2n1-c1ccc2c(c1)CC[C@@H]2NC(=O)c1ccn(C(F)F)n1` [Compound 174], the IC50 was determined as 1440 nM in experiment [1], 52 nM at AKT1 E17K (setting [2]), 13.2 nM on AKT1 WT (setting [2]) and 431 nM at AKT2 (setting [2]).
Regarding `Nc1ncccc1-c1nc2ccc(-n3nccn3)nc2n1-c1ccc2c(c1)CC[C@@H]2NC(=O)c1ccnc2occc12` [Compound 379], the IC50 came to 4240 nM in experiment [1], 248 nM at AKT1 E17K (setting [2]), 12.6 nM at AKT1 WT (setting [2]) and 1280 nM at AKT2 (setting [2]).
For `Nc1ncccc1-c1nc2ccc(-n3cccn3)nc2n1-c1ccc2c(c1)CC[C@@H]2NC(=O)c1ccnc2c1OCCO2` [Compound 356] the same measures were more than 10000 nM, more than 1000 nM, 52.3 nM and 1070 nM.
As for `Nc1ncccc1-c1nc2ccc(-n3nccn3)nc2n1-c1ccc2c(c1)CC[C@@H]2NC1CCN(c2ccccn2)CC1` [Compound 366], the IC50 in experiment [1] is more than 10000 nM; at AKT1 E17K (setting [2]), 818 nM; on AKT1 WT (setting [2]) it was 70.9 nM; on AKT2 (setting [2]), 4380 nM.
`CN(C)c1ccc(F)c(C(=O)N[C@H]2CCc3cc(-n4c(-c5cccnc5N)nc5ccc(-n6cccn6)nc54)ccc32)c1` [Compound 7, N—{(S)-5-[2-(2-amino-3-pyridyl)-5-(1-pyrazolyl)-3H-1,3,4-triazainden-3-yl]-1-indanyl}5-(dimethylamino)-2-fluorobenzamide]: the IC50 was found to be 2600 nM in experiment [1], 320 nM on AKT1 E17K (setting [2]), 7.29 nM on AKT1 WT (setting [2]) and 118 nM on AKT2 (setting [2]).
For `CCOC(=O)N1CCC(N[C@H]2CCc3cc(-n4c(-c5cccnc5N)nc5ccc(-n6cccn6)nc54)ccc32)CC1` [Compound 289] the same measures were 4780 nM, 283 nM, 69.9 nM and 2990 nM.
For `Nc1ncccc1-c1nc2ccc(-n3cccn3)nc2n1-c1ccc2c(c1)CC[C@@H]2NC(=O)c1ccnc2occc12` [Compound 282] the same measures were 1310 nM, 84.2 nM, 5.86 nM and 68.9 nM.
`Nc1ncccc1-c1nc2ccc(-n3cccn3)nc2n1-c1ccc2c(c1)CC[C@@H]2NC(=O)c1ccc(Cl)nc1` [Compound 45, (S)—N-(5-(2-(2-aminopyridin-3-yl)-5-(1H-pyrazol-1-yl)-3H-imidazo[4,5-b]pyridin-3-yl)-2,3-dihydro-1H-inden-1-yl)-6-chloronicotinamide]: the IC50 in experiment [1] was determined as 1340 nM; at AKT1 E17K (setting [2]), 170 nM; at AKT1 WT (setting [2]) it was 17.4 nM; on AKT2 (setting [2]) it was 139 nM.
Consider `Nc1ncccc1-c1nc2ccc(-n3cccn3)nc2n1-c1ccc2c(c1)CC[C@@H]2NC(=O)c1ccc(O)c(O)c1` [Compound 323], for which the IC50 in experiment [1] stood at 713 nM; on AKT1 E17K (setting [2]), 112 nM; at AKT1 WT (setting [2]), 45.6 nM; on AKT2 (setting [2]) it was 594 nM.
For `Cc1ncc(F)cc1C(=O)N[C@H]1CCc2cc(-n3c(-c4cccnc4N)nc4ccc(-n5nccn5)nc43)ccc21` [Compound 382] the same measures were 4150 nM, 92.3 nM, 13.1 nM and 546 nM.
On to `Nc1ncccc1-c1nc2ccc(-n3cccn3)nc2n1-c1ccc2c(c1)CC(F)[C@@H]2NC1CCN(C(=O)C2CC2)CC1` (single isomer, unassigned) [Compound 386], for which the IC50 in experiment [1] is more than 7160 nM; on AKT1 E17K (setting [2]), more than 487 nM; at AKT1 WT (setting [2]) it was 17.6 nM; at AKT2 (setting [2]), 1310 nM.
In the case of `Nc1ncccc1-c1nc2ccc(-n3cccn3)nc2n1-c1ccc2c(c1)CC[C@@H]2NC(=O)C1COC1` [Compound 15, (S)—N-(5-(2-(2-aminopyridin-3-yl)-5-(1H-pyrazol-1-yl)-3H-imidazo[4,5-b]pyridin-3-yl)-2,3-dihydro-1H-inden-1-yl)oxetane-3-carboxamide], the IC50 in experiment [1] is more than 10000 nM; on AKT1 E17K (setting [2]), more than 1000 nM; at AKT1 WT (setting [2]), 215 nM; at AKT2 (setting [2]), 4030 nM.
With `COc1nccc(C(=O)N[C@H]2CCc3cc(-n4c(-c5cccnc5N)nc5ccc(-n6cccn6)nc54)ccc32)c1C` [Compound 284], the IC50 in experiment [1] worked out at 1070 nM; at AKT1 E17K (setting [2]), 143 nM; at AKT1 WT (setting [2]), 5.1 nM; on AKT2 (setting [2]), 10.5 nM.
Turning to `Cn1cc(C(=O)N[C@H]2CCc3cc(-n4c(-c5cccnc5N)nc5ccc(-n6cccn6)nc54)ccc32)cn1` [Compound 39, (S)—N-(5-(2-(2-aminopyridin-3-yl)-5-(1H-pyrazol-1-yl)-3H-imidazo[4,5-b]pyridin-3-yl)-2,3-dihydro-1H-inden-1-yl)-1-methyl-1H-pyrazole-4-carboxamide], the IC50 in experiment [1] is 5190 nM; on AKT1 E17K (setting [2]) it was 211 nM; on AKT1 WT (setting [2]) it was 49.2 nM; on AKT2 (setting [2]), 754 nM.
As for `Nc1ncccc1-c1nc2ccc(-n3cccn3)nc2n1-c1ccc2c(c1)CC[C@@H]2NC(=O)c1cncnc1` [Compound 40, N-[(1S)-5-[2-(2-aminopyridin-3-yl)-5-(pyrazol-1-yl)imidazo[4,5-b]pyridin-3-yl]-2,3-dihydro-1H-inden-1-yl]pyrimidine-5-carboxamide], the IC50 is 1770 nM in experiment [1], 36 nM at AKT1 E17K (setting [2]), 9.21 nM at AKT1 WT (setting [2]) and 179 nM at AKT2 (setting [2]).
As for `COc1cc(C(=O)N[C@H]2CCc3cc(-n4c(-c5cccnc5N)nc5ccc(-n6nccn6)nc54)ccc32)cnn1` [Compound 426], the IC50 in experiment [1] worked out at 1510 nM; at AKT1 E17K (setting [3]), 59 nM; at AKT1 WT (setting [3]) it was 3.17 nM; at AKT2 (setting [3]), 360 nM.
For `COCCOc1ccn(-c2ccc3nc(-c4cccnc4N)n(-c4ccc5c(c4)CC[C@@H]5NC4CCN(C(=O)C5CC5)CC4)c3n2)n1` [Compound 504] the same measures were 4410 nM, more than 1000 nM, 14.3 nM and 665 nM.
As to `Nc1ncccc1-c1nc2ccc(-n3cccn3)nc2n1-c1ccc2c(c1)CC[C@@H]2NC(=O)c1ccc(O)c(C(F)(F)F)c1` [Compound 257], the IC50 was determined as 1430 nM in experiment [1], 16.5 nM at AKT1 E17K (setting [2]), 8.26 nM at AKT1 WT (setting [2]) and 273 nM at AKT2 (setting [2]).
For `Cn1nc(C(=O)N[C@H]2CCc3cc(-n4c(-c5cccnc5N)nc5ccc(-n6cccn6)nc54)ccc32)c2c1OCC2` [Compound 390] the same measures were more than 10000 nM, 31.8 nM, 15.8 nM and 105 nM.
Turning to `Nc1ncccc1-c1nc2ccc(-n3cccn3)nc2n1-c1ccc2c(c1)CC[C@@H]2NC(=O)c1cncnc1C(F)F` [Compound 116], the IC50 amounted to 5240 nM in experiment [1], 157 nM on AKT1 E17K (setting [2]), 10.2 nM at AKT1 WT (setting [2]) and 303 nM on AKT2 (setting [2]).
In the case of `Cc1ccc(C(=O)N[C@H]2CCc3cc(-n4c(-c5ccccc5F)nc5ccc(-n6cccn6)nc54)ccc32)cn1` [Compound 401], the IC50 came out at 4210 nM in experiment [1], 108 nM at AKT1 E17K (setting [3]), 10.9 nM at AKT1 WT (setting [3]) and 2730 nM at AKT2 (setting [3]).
For `Nc1ncccc1-c1nc2ccc(-n3nccn3)nc2n1-c1ccc2c(c1)CC[C@@H]2NC(=O)c1cnc(C(F)F)s1` [Compound 427] the same measures were 1710 nM, 101 nM, 9.56 nM and 1080 nM.
Turning to `COc1cc(C(=O)N[C@H]2CCc3cc(-n4c(-c5cccnc5N)nc5ccc(-n6nccn6)nc54)ccc32)cnc1C(F)F` [Compound 364], the IC50 in experiment [1] came out at 2320 nM; on AKT1 E17K (setting [2]) it was 260 nM; on AKT1 WT (setting [2]), 20.7 nM; on AKT2 (setting [2]), 1110 nM.
In the case of `CC(C)(C)c1cn([C@H]2CCc3cc(-n4c(-c5cccnc5N)nc5ccc(-n6cccn6)nc54)ccc32)nn1` [Compound 320], the IC50 in experiment [1] is 2250 nM; at AKT1 E17K (setting [2]) it was 472 nM; at AKT1 WT (setting [2]) it was 83.7 nM; on AKT2 (setting [2]) it was 2330 nM.
`Nc1ncccc1-c1nc2ccc(-n3cccn3)nc2n1-c1ccc2c(c1)CC[C@@H]2NC(=O)c1ccccc1` [Compound 43, (S)—N-(5-(2-(2-aminopyridin-3-yl)-5-(1H-pyrazol-1-yl)-3H-imidazo[4,5-b]pyridin-3-yl)-2,3-dihydro-1H-inden-1-yl)benzamide]: the IC50 in experiment [1] is 1160 nM; on AKT1 E17K (setting [2]) it was 44.2 nM; at AKT1 WT (setting [2]), 14.1 nM; at AKT2 (setting [2]), 139 nM.
For `Cc1ncccc1C(=O)N[C@H]1CCc2cc(-n3c(-c4cccnc4N)nc4ccc(-n5cccn5)nc43)ccc21` [Compound 29, (S)—N-(5-(2-(2-aminopyridin-3-yl)-5-(1H-pyrazol-1-yl)-3H-imidazo[4,5-b]pyridin-3-yl)-2,3-dihydro-1H-inden-1-yl)-2-methylnicotinamide] the same measures were 3650 nM, 78.6 nM, 15.9 nM and 153 nM.

The values are drawn from patent publication US12624034B2, “Non-covalent modifiers of AKT1 and uses thereof” (Terremoto Biosciences, Inc., priority 2023, dated 2026).
